Literature values as cited in patent publication US11826321B2, “Cyclobenzaprine treatment for agitation, psychosis and cognitive decline in dementia and neurodegenerative conditions” (TONIX PHARMA HOLDINGS LIMITED, priority 2017, dated 2023).

Legend:
[1] = target: serotonergic-2A (5-HT2A) receptor (Homo sapiens, UniProt P28223)
[2] = PubMed, NIH Drug Reaction Navigator, Medscape Drug Interaction Checker, Drugs.com
[3] = target: alpha-adrenergic-1A (α1A) receptor (Homo sapiens, UniProt P35348)
[4] = IR 5 mg TID, 10 doses over 4 days, healthy elderly 62 to 80 years
[5] = IR 5 to 10 mg TID and ER 15 mg BID/QD to 30 mg QD; scale to 3

Chain of serotonergic-2A (5-HT2A) receptor (P28223 whole entry, species assumed): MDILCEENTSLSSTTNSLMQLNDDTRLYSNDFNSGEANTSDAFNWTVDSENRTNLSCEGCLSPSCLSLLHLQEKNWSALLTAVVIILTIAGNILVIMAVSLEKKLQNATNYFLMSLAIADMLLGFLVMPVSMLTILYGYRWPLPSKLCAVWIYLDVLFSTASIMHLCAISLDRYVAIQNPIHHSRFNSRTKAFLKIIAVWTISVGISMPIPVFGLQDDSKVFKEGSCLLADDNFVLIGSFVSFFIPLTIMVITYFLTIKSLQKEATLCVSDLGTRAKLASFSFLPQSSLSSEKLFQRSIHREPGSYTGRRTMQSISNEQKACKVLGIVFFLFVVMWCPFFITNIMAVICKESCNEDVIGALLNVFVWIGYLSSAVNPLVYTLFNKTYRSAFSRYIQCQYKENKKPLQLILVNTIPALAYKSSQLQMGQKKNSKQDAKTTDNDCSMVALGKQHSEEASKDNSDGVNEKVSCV
Chain of alpha-adrenergic-1A (α1A) receptor (P35348 whole entry): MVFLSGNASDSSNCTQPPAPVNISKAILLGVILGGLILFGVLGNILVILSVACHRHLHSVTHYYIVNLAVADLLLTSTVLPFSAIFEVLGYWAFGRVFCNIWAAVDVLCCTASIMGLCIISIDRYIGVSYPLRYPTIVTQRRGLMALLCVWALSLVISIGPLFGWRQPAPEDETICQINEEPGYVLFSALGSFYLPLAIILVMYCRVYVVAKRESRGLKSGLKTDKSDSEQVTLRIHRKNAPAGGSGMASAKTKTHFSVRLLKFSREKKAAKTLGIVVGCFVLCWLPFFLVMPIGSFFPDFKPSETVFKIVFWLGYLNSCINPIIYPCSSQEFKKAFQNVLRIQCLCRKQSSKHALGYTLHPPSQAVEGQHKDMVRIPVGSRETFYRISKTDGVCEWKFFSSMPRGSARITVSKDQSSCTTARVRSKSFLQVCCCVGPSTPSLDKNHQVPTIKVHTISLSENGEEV

5-HT2A antagonist potency [1]: potent | α1A antagonist potency [3]: potent | anticholinergic burden scale score [5]: 2 | hallucinations reported among patients who took 5 mg TID (5 mg TID): none were reported
SMILES: CN(C)CCC=C1c2ccccc2C=Cc2ccccc21 [Cyclobenzaprine, 3-(5H-dibenzola[a,d]cyclohepten-5-ylidene)-N,N-dimethyl-1 propanamine]
reports of drug-drug interactions with donepezil, rivastigmine, galantamine, memantine [2]: did not identify any reports of interactions | drowsiness and cognitive test performance [4]: does not appear to cause excessive drowsiness or impair performance on cognitive tasks | incidence of hallucinations (cyclobenzaprine 10 mg, mostly elderly patients): 0.2%
